Where only a bound is given, the exact number is not on record here.

For the assay, the target named is T1, Human recombinant MAO-B (Homo sapiens, UniProt P27338).
T1 construct: host or cells: insect cells
T1 sequence (P27338 1-520): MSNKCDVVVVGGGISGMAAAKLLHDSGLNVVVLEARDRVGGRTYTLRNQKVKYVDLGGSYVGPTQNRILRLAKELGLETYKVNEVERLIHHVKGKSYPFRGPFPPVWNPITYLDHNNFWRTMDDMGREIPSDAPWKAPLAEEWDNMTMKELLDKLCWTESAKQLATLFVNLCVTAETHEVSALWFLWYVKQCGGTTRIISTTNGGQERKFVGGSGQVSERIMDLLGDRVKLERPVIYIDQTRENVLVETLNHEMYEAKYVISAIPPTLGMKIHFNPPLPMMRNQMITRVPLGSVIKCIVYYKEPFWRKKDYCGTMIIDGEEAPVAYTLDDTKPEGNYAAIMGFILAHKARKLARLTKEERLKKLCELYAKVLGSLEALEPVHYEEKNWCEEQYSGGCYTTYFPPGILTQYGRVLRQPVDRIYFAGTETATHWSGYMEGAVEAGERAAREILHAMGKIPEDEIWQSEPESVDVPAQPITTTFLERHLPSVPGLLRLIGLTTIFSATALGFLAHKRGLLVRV
Nature of the assay: MAO-B enzymatic assay (fluorometric, kynuramine). The following applies: human recombinant MAO-B expressed in insect cells; kynuramine substrate; values given as bins; read-out: MAO-B (pEC50) (converted). Type of assay: biochemical. How it is done:
The MAO enzymatic assay was performed according to the fluorometric method described by Matsumoto and colleagues (Matsumoto et al., Clin. Biochem. 1985, 18, 126-129) with the following modifications. Human recombinant MAO-A and MAO-B expressed in insect cells were used. For both assays, test compound and/or vehicle were preincubated with purified enzyme in phosphate buffer pH 7.4 for 15 minutes at 37° C. The reaction was initiated by addition of […] kynuramine. Following a 60 minute incubation period, the reaction was terminated by the addition of 6 N NaOH. The amount of 4-hydroxyquinoline that formed was determined by spectrofluorimetrically at 325 nm/465 nm.
Results were converted to percent inhibition, and the EC50 (M) for each reaction was determined using the XLfit program from IDBS (ID Business Solutions Ltd., 2 Occam Court, Surrey Research Park, Guildford, Surrey, GU2 7QB UK). The EC50 represents the concentration of a compound where 50% of its maximal effect is observed. The pEC50 is defined as the negative logarithm of the EC50; a higher pEC50 value therefore corresponds to higher potency in the assay.
Representative compounds of the invention were evaluated in the MAO-B enzymatic assay. Typically, the compounds of the invention show MAO-B inhibitory properties at a concentration of 0.1 to 10 μM, typically at 5-100%.
As depicted in the following Table, these inhibitory properties were mirrored by pEC50 values ranging from 5 (meaning 10^−5 M or 10 μM) to greater than 7 (meaning less than 10^−7 M or 0.1 μM).
Consider `CCOC(=O)Cc1cnc2cc(OCc3cccc(F)c3)ccc2c1` [Example 52, Ethyl 2-(7-((3-fluorobenzyl)oxy)quinolin-3-yl)acetate], for which the EC50 is 1 to 10 µM. Regarding `CC(O)c1cnc2cc(OCc3ccc(F)cc3)ccc2c1` (stereo not shown) [Example 43, 1-(7-((4-Fluorobenzyl)oxy)quinolin-3-yl)ethanol], the EC50 is under 0.1 µM.

In the case of `NC(=O)Cc1cnc2cc(OCc3ccnc(C(F)(F)F)c3)ccc2c1` [Example 62, 2-(7-((2-(Trifluoromethyl)pyridin-4-yl)methoxy)quinolin-3-yl)acetamide], the EC50 was under 0.1 µM.

With `NC(=O)Cc1cc2ccc(OCc3cccc(Cl)c3)cc2[nH]c1=O` [Example 83, 2-(7-((3-Chlorobenzyl)oxy)-2-oxo-1,2-dihydroquinolin-3-yl)acetamide], the EC50 is under 0.1 µM. With `CCOC(=O)c1cnc2cc(OCc3ccc([N+](=O)[O-])cc3)ccc2c1` [Example 11, Ethyl 7-((4-nitrobenzyl)oxy)quinoline-3-carboxylate], the EC50 is 0.1 to 1 µM. As to `CCOC(=O)c1cnc2cc(OCc3cc(F)cc(F)c3)ccc2c1` [Example 15, Ethyl 7-((3,5-difluorobenzyl)oxy)quinoline-3-carboxylate], the EC50 is under 0.1 µM. Turning to `NC(=O)Cc1cnc2cc(OCc3cccc(C(F)(F)F)n3)cnc2c1` [Example 81, 2-(7-((6-(Trifluoromethyl)pyridin-2-yl)methoxy)-1,5-naphthyridin-3-yl)acetamide], the EC50 was 0.1 to 1 µM. For the molecule `CCOC(=O)c1cnc2cc(OCCc3cccc(Cl)c3)ccc2c1` [Example 25, Ethyl 7-(3-chlorophenethoxy)quinoline-3-carboxylate], the EC50 is 0.1 to 1 µM. In the case of `CCOC(=O)Cc1cnc2cc(OCc3ccc(F)cc3)ccc2c1` [Example 53, Ethyl 2-(7-((4-fluorobenzyl)oxy)quinolin-3-yl)acetate], the EC50 was 0.1 to 1 µM. For `CC(C)(O)c1cnc2cc(OCc3cccc(F)c3)cnc2c1` [Example 76, 2-{7-[(3-Fluorophenyl)methoxy]-1,5-naphthyridin-3-yl}propan-2-ol], the EC50 is under 0.1 µM. Consider `CCOC(=O)c1cnc2cc(OCCc3cccc(F)c3)ccc2c1` [Example 24, Ethyl 7-(3-fluorophenethoxy)quinoline-3-carboxylate], for which the EC50 was under 0.1 µM. Turning to `CC(C)(O)c1cc2ccc(OCc3ccc(F)cc3)cc2[n+]([O-])c1` [Example 66, 7-[(4-Fluorophenyl)methoxy]-3-(2-hydroxypropan-2-yl)quinolin-1-ium-1-olate], the EC50 was 0.1 to 1 µM. In the case of `NC(=O)Cc1cnc2cc(OCc3cccc(F)c3)ccc2c1` [Example 57, 2-(7-((3-Fluorobenzyl)oxy)quinolin-3-yl)acetamide], the EC50 was under 0.1 µM.

Take `CCOC(=O)c1cc2ccc(OCc3ccc(F)cc3)cc2nc1C` [Example 22, Ethyl 7-((4-fluorobenzyl)oxy)-2-methylquinoline-3-carboxylate]: the EC50 was under 0.1 µM. The result for `CCOC(=O)c1cnc2cc(OCc3ccc(C)cc3)ccc2c1` [Example 8, Ethyl 7-((4-methylbenzyl)oxy)quinoline-3-carboxylate] reads 0.1 to 1 µM; that for `CC(C)(O)c1cnc2cc(OCCc3cccc(F)c3)ccc2c1` [Example 38, 2-(7-(3-Fluorophenethoxy)quinolin-3-yl)propan-2-ol], 0.1 to 1 µM.

As to `CC(C)(O)c1cnc2cc(OCc3ccc(F)cc3)ccc2c1` [Example 27, 2-(7-((4-Fluorobenzyl)oxy)quinolin-3-yl)propan-2-ol], the EC50 was under 0.1 µM. Consider `CC(C)(O)c1cnc2cc(OCc3ccc(F)c(Cl)c3)cnc2c1` [Example 78, 2-{7-[(3-Chloro-4-fluorophenyl)methoxy]-1,5-naphthyridin-3-yl}propan-2-ol], for which the EC50 is under 0.1 µM. Consider `COC(=O)Cc1cnc2cc(OCc3cccc(Cl)c3)ccc2c1` [Example 54, Methyl 2-(7-((3-chlorobenzyl)oxy)quinolin-3-yl)acetate], for which the EC50 was under 0.1 µM. Turning to `CCOC(=O)c1cnc2cc(OCc3cc(F)cc(C(F)(F)F)c3)ccc2c1` [Example 13, Ethyl 7-((3-fluoro-5-(trifluoromethyl)benzyl)oxy)quinoline-3-carboxylate], the EC50 is under 0.1 µM.

Take `CC(C)(F)c1cnc2cc(OCc3ccc(F)cc3)cnc2c1` [Example 75, 3-[(4-Fluorophenyl)methoxy]-7-(2-fluoropropan-2-yl)-1,5-naphthyridine]: the EC50 is under 0.1 µM. With `CCOC(=O)c1cc2ccc(OCc3cccc(Cl)c3)cc2nc1C` [Example 20, Ethyl 7-((3-chlorobenzyl)oxy)-2-methylquinoline-3-carboxylate] the figure was under 0.1 µM; with `CCOC(=O)c1cc2ccc(OCc3cccc(F)c3)cc2nc1C` [Example 21, Ethyl 7-((3-fluorobenzyl)oxy)-2-methylquinoline-3-carboxylate], under 0.1 µM; with `CC(C)(O)c1cnc2cc(OCc3cc(F)c(F)c(F)c3)ccc2c1` [Example 30, 2-(7-((3,4,5-Trifluorobenzyl)oxy)quinolin-3-yl)propan-2-ol], under 0.1 µM. On to `CC(C)(O)c1cnc2cc(OCc3cc(F)cc(F)c3)ccc2c1` [Example 29, 2-(7-((3,5-Difluorobenzyl)oxy)quinolin-3-yl)propan-2-ol], for which the EC50 was under 0.1 µM. As for `CCOC(=O)c1cnc2cc(OCc3cccc([N+](=O)[O-])c3)ccc2c1` [Example 18, Ethyl 7-((3-nitrobenzyl)oxy)quinoline-3-carboxylate], the EC50 was under 0.1 µM. Regarding `CCOC(=O)c1cnc2cc(OCc3cccc(C)c3)ccc2c1` [Example 7, Ethyl 7-((3-methylbenzyl)oxy)quinoline-3-carboxylate], the EC50 was under 0.1 µM.

As for `CCOC(=O)c1cnc2cc(OCc3ccc(F)c(F)c3)ccc2c1` [Example 14, Ethyl 7-((3,4-difluorobenzyl)oxy)quinoline-3-carboxylate], the EC50 was under 0.1 µM. Regarding `CC(C)(F)c1cnc2cc(OCc3ccc(F)cc3)ccc2c1` [Example 41, 7-((4-Fluorobenzyl)oxy)-3-(2-fluoropropan-2-yl)quinoline], the EC50 was under 0.1 µM.

In the case of `NC(=O)Cc1cnc2cc(OCc3ccc(F)cc3)ccc2c1` [Example 58, 2-(7-((4-fluorobenzyl)oxy)quinolin-3-yl)acetamide], the EC50 is under 0.1 µM. With `NC(=O)c1cnc2cc(OCc3cccc(Cl)c3)cnc2c1` [Example 69, 7-((3-Chlorobenzyl)oxy)-1,5-naphthyridine-3-carboxamide] the figure was under 0.1 µM; with `CCOC(=O)c1cnc2cc(OCc3ccc(F)c(C(F)(F)F)c3)ccc2c1` [Example 12, Ethyl 7-((4-fluoro-3-(trifluoromethyl)benzyl)oxy)quinoline-3-carboxylate], under 0.1 µM. Take `NC(=O)c1cnc2cc(OCc3ccc(F)cc3)cnc2c1` [Example 68, 7-((4-Fluorobenzyl)oxy)-1,5-naphthyridine-3-carboxamide]: the EC50 is under 0.1 µM. In the case of `CCOC(=O)c1cnc2cc(OCc3ccc(Cl)cc3)ccc2c1` [Example 1, Ethyl 7-[(4-chlorophenyl)methoxy]quinoline-3-carboxylate], the EC50 is under 0.1 µM. Take `CCOC(=O)c1cnc2cc(OCc3ccc(OC)cc3)ccc2c1` [Example 10, Ethyl 7-((4-methoxybenzyl)oxy)quinoline-3-carboxylate]: the EC50 is 0.1 to 1 µM. For `CC(C)(CO)c1cnc2cc(OCc3cccc(Cl)c3)ccc2c1` [Example 60, 2-(7-((3-Chlorobenzyl)oxy)quinolin-3-yl)-2-methylpropan-1-ol], the EC50 was under 0.1 µM.

For `CCOC(=O)c1cnc2cc(OCc3cc(F)c(F)c(F)c3)ccc2c1` [Example 16, Ethyl 7-((3,4,5-trifluorobenzyl)oxy)quinoline-3-carboxylate], the EC50 was under 0.1 µM.

For the molecule `N#CCc1cnc2cc(OCc3ccc(F)c(F)c3)cnc2c1` [Example 74, 2-{7-[(3,4-Difluorophenyl)methoxy]-1,5-naphthyridin-3-yl}acetonitrile], the EC50 is under 0.1 µM. The result for `CCOC(=O)c1cnc2cc(OCc3ccc(F)cc3)ccc2c1` [Example 2, Ethyl 7-[(4-fluorophenyl)methoxy]quinoline-3-carboxylate] reads under 0.1 µM; that for `CNC(=O)c1cnc2cc(OCc3cccc(Cl)c3)ccc2c1` [Example 46, 7-((3-Chlorobenzyl)oxy)-N-methylquinoline-3-carboxamide], under 0.1 µM.

(Values after patent publication US9102674B2, “Substituted naphthyridine and quinoline compounds as MAO inhibitors” (DART NEUROSCIENCE (CAYMAN) LTD., priority 2013, dated 2015).)
